From patent US20080221078A1, “Use of a CB1 Antagonist for Treating Side Effects and Negative Symptoms of Schizophrenia” (priority 2005, published 2008)

Experiments:
rats = test: MK-801-induced persistent latent inhibition (conditioned emotional response procedure); format: in vivo, rat
Text: When the bottle was not present, the hole was covered by a metal lid. Licks were detected by a Campden Instruments drinkometer. The preexposed to-be-conditioned stimulus was a 10 sec, 80 dB, 2.8 kHz tone produced by a Sonalert module. Shock was supplied through the floor by a Campden Instruments shock generator and shock scrambler set at 0.5 mA and 1 sec duration. Equipment programming and data recording were computer controlled.
Water in the test apparatus was given in addition to the daily ration of 1 h given in the home cages.
Shock immediately followed tone termination. The first tone-shock pairing was given 5 min after the start of the session. After the last pairing, rats were left in the experimental chamber for an additional 5 min.
When the rat completed 75 licks the tone was presented for 5 min. The following times were recorded: Time to first lick, time to complete licks 1-50, time to complete licks 51-75 (before tone onset) and time to complete licks 76-100 (after tone onset). Times to complete licks 76-100 were logarithmically transformed to allow parametric analysis of variance. Longer log times indicate stronger suppression of drinking.

Male Sprague-Dawley rats [1] = test: Antipsychotic induced catalepsy (bar test); settings: for olanzapine-induced catalepsy: olanzapine 10 mg/kg ip
Procedure: (§3) Animals: Male Sprague-Dawley rats (Charles River Laboratories) weighing 267-457 g were used. The animals were housed under standard laboratory conditions as outlined in the NIH Guide for Care and Use of Laboratory Animals. They were maintained on a 12:12 light/dark cycle with tap water and Lab Diet rodent chow ad libitum. Rats were acclimatized to the experimental room for 60 min prior to injections. Procedure: The test for catalepsy consists of placing an individual animal in a white translucent plastic box (26×20×15 cm) with a wooden dowel mounted horizontally 10 cm from the floor and 4 cm from one end of the box. The floor is covered with approximately 1 cm of bedding material. Test animals are transferred from the vivarium in their home cages to the experimental room and are allowed to acclimatize for 60 mins. Five animals are kept in a cage. The animals are transferred into another cage after treatment. […] 30 mins after the second treatment, animals were placed individually in the white translucent plastic boxes and tested for catalepsy following a one minute acclimatization period. A group of five animals are tested at a time. Each treatment group consists of 10 animals.
(§4) At the end of the one minute acclimation period, each animal is gently grasped around the shoulders and under the forepaws, and gently placed on the wooden dowel. The amount of time each rat spends with at least one forepaw on the bar determined for a maximum period of 180 seconds. This is repeated three times.
(§5) Haloperidol was used at the dose of 1 mg/kg.
(§6) Haloperidol was dissolved in distilled water via dilution of a 5 mg/ml stock solution in distilled water. Olanzapine was dissolved in three drops of HCl prior to the addition of distilled water to full volume.

Male Sprague-Dawley rats [2] = test: Amphetamine-induced locomotion; format: in vivo, rat
Procedure: (§1) Animals: Male CD-1 mice (Charles River Laboratories) weighing 20-30 g were used. Male Sprague-Dawley rats (Charles River Laboratories) weighing 250-433 g were used. […] Procedure: A standard automated locomotion assay was employed (see, for example: R. Christopher Pierce and Peter Kalivas. (1997) Locomotor Behavior. In: Current Protocols in Neuroscience, Volume 3, 8.1.1-8.1.8. G. P. Taylor, Editor. New York: John Wiley & Sons, Inc.). Horizontal activity was measured by beam breaks of photocells lining the chamber exterior to the activity boxes. The activity was measured for 60 min during spontaneous locomotion or 90 min for the PCP or amphetamine-induced assays. Example 2 was administered per os (po) with a 1 hr pre-treatment. […] PCP or amphetamine was administered ip or subcutaneous (sc), respectively, with no pre-treatment. When pre-treatment time elapsed for each rodent, the activity cage was transferred from its holding rack and placed into its own locomotion chamber. Independent start time is possible with the recording of activity commencing almost immediately. The computer automatically times out each chamber individually when the session has ended. Drugs: Doses of Example 2 for mice were 0.3, 1, 3, and 10 mg/kg, p.o. The lowest dose was not tested in spontaneous locomotion for rats. The three highest doses of Example 2 were tested against PCP-induced and amphetamine-induced locomotion in mice and rats, respectively. The conventional antipsychotic haloperidol was used in co-administration with Example 2 (1, 3, and 10 mg/kg) at the doses of 0.1 and 0.2 mg/kg in mice to reverse PCP-induced locomotion. Haloperidol was co-administered at the dose of 0.3 mg/kg in rats to reverse amphetamine-induced locomotion.
(§2) Phencyclidine and amphetamine were dissolved in distilled water.

[3] = system: Female Wistar rats on high fat diet; test: Antipsychotic (olanzapine) induced weight gain
Text: Animals: Female Wistar rats on high fat diet were used in this Example.

Male Sprague Dawley rats = test: Holeboard test (working memory performance); format: in vivo, rat
Text: Similarly, a working memory performance in a rat hole board model has been used to measure various cognition deficits. The hole board task is a well-known and widely used assay to measure working and reference memory in rodents. This model utilizes a board with 8 holes, each baited with a food reward, thus taking advantage of the rodent's natural propensity to forage for food. In a modified version, it has now been able to assess improvements in working memory performance without the use of amnestic agents. Male Sprague Dawley rats are allowed to find and consume 4 of the 8 rewards and then removed to the home cage for 2 minutes. They are then returned and allowed to find and consume the remaining 4 rewards. Any returns to holes already visited are considered working memory errors.
Animals: Male Sprague Dawley rats (Charles River) were housed on a 12 hour light/dark cycle, with lights on at 06:00. Rats were maintained at 80% of their normal body weight, with average starting weights at 200-220 grams. Rats were acclimated to the testing chamber (Med-Associates, Inc. hole board in a ventilated, sound-attenuating cubicle) for four 10-minute trials over a two-day period 24 hours prior to drug treatments. The testing chamber contains eight holes, each of which is baited with a food reward (cocoa puff). Procedure: Each experiment was carried over two-three days, with a 3 day (experiment 1), 4 day (experiment 2), and 3 day (experiment 3) washout in between. Thirty two animals were used for each experiment, with each animal pseudo-randomly assigned to treatment groups such that each animal received two of the four-five treatments, with an even distribution of all possible treatment-treatment combinations. There were a total of 16 animals per treatment group. On test days, rats were injected intraperitoneally (i.p.) with N-{1-[bis(4-chlorophenyl)methyl]azetidin-3-yl}-N-(3,5-difluorophenyl)methylsulfonamide (Example 2) (Exp 1: 0.3, 1, or 3 mg/kg; Exp 2: 1, 3 or 10 mg/kg) or vehicle (distilled water with 1% tween). For Exp 3, rats were injected i.p. with risperidone followed by Example 2 (Exp 3: 0.010, 0.10, or 1.0 mg/kg with 3 mg/kg Example 2) or vehicle (0.9% NaCl with 1% tween). The rats were then placed in the test chamber 60 minutes later. After consuming 4 food rewards, the rats were removed from the chamber for 2 minutes and returned to their home cage. They were then returned to the chamber and allowed to retrieve and finish the remaining four rewards, or for a total of 10 minutes. […] The number of visits to holes that they have already visited were noted. Drugs: Doses of Example 2 were 0.3, 1 and 3 mg/kg (experiment 1) and 1, 3 and 10 mg/kg (experiment 2). Example 2 was put into suspension with distilled water (exp 1 & 2) or 0.9% NaCl (exp 3), with the addition of tween 80. Doses of risperidone (antipsychotic, Sigma) were 0.010, 0.10, and 1.0 mg/kg (experiment 3). risperidone was solubilized in 0.9% NaCl with the addition of 1% tween 80,

Male CD-1 mice = test: PCP-induced locomotion; format: in vivo, mouse
Procedure: as §1, §2

[4] = Antipsychotic induced catalepsy (bar test); settings: male, Sprague-Dawley, rat, in vivo, intraperitoneal
Procedure: as §3, §4, §5, §6

N-{1-[Bis(4-chlorophenyl)methyl]azetidin-3-yl}-N-(3,5-difluorophenyl)methylsulfonamide [Example 2]
MK801-induced persistent latent inhibition (rats; 1, 3 and 10 mg/kg i.p., 60 minutes prior to pre-exposure and conditioning): reversed | olanzapine-induced catalepsy (Male Sprague-Dawley rats [1]; Example 2 3 mg/kg orally): significantly reversed | haloperidol-induced catalepsy (Male Sprague-Dawley rats [1]; Example 2 10 mg/kg orally, haloperidol 1 mg/kg ip): significantly reversed | olanzapine-induced catalepsy (Male Sprague-Dawley rats [1]; Example 2 10 mg/kg orally): significantly reversed | reversal of locomotor hyperactivity induced by d-AMPH (Male Sprague-Dawley rats [2]; rats, Example 2 alone 1, 3, and 10 mg/kg p.o.): no significant reversal | effect of co-treatment with haloperidol on amphetamine-induced locomotion (Male Sprague-Dawley rats [2]; rats, haloperidol 0.3 mg/kg ip with Example 2): yielded the same effects whether or not Example 2 was present or absent | effect of co-treatment with olanzapine on amphetamine-induced locomotion (Male Sprague-Dawley rats [2]; rats, olanzapine 1 and 3 mg/kg ip with Example 2): yielded the same effects whether or not Example 2 was present or absent | weight gain vs. saline controls ([3]; 10 mg/kg Example 2 i.p. with olanzapine 3 mg/kg i.p.): not significant from saline controls | weight vs. saline ([3]; Example 2 alone 10 mg/kg i.p.): no significant effect | weight gain elicited by olanzapine ([3]; co-administration of Example 2 1, 3, and 10 mg/kg i.p. with olanzapine 3 mg/kg i.p.): dose dependent attenuation | number of working memory errors compared to vehicle treated animals (Male Sprague Dawley rats; Experiment 1, 0.3 mg/kg i.p., after 2 minute delay): but not the 0.3 or 1 mg/kg doses | number of working memory errors compared to vehicle treated animals (Male Sprague Dawley rats; Experiment 1, 1 mg/kg i.p., after 2 minute delay): but not the 0.3 or 1 mg/kg doses | number of working memory errors compared to vehicle treated animals (Male Sprague Dawley rats; Experiment 1, 3 mg/kg i.p., after 2 minute delay, p<0.05): significant decrease | number of working memory errors compared to vehicle treated animals (Male Sprague Dawley rats; Experiment 2, 3 mg/kg i.p., after 2 minute delay, p<0.05): significant decrease | number of working memory errors compared to vehicle treated animals (Male Sprague Dawley rats; Experiment 2, 10 mg/kg i.p., after 2 minute delay, p<0.05): significant decrease | number of working memory errors compared to vehicle treated animals (Male Sprague Dawley rats; Experiment 3, 3 mg/kg Example 2 in combination with 0.10 mg/kg risperidone i.p., p<0.05): significant decrease | number of working memory errors compared to vehicle treated animals (Male Sprague Dawley rats; Experiment 3, 3 mg/kg i.p. Example 2 alone, p<0.05): significant decrease | minimum effective dose for improvement in working memory performance (Male Sprague Dawley rats; i.p.): 3 mg/kg | reversal of locomotor hyperactivity induced by PCP (Male CD-1 mice; Example 2 alone 1, 3, and 10 mg/kg p.o.): no significant reversal | effect of co-treatment with haloperidol on PCP-induced locomotion (Male CD-1 mice; haloperidol 0.1 and 0.2 mg/kg ip with Example 2 1, 3, 10 mg/kg p.o.): yielded the same effects whether or not Example 2 was present or absent | effect of co-treatment with olanzapine on PCP-induced locomotion (Male CD-1 mice; olanzapine 0.03 and 0.3 mg/kg ip with Example 2 1, 3, 10 mg/kg p.o.): yielded the same effects whether or not Example 2 was present or absent

C[C@]12N[C@H](Cc3ccccc31)c1ccccc12 [MK-801, dizocilpine]
latent inhibition (LI) with 40 preexposures and 5 conditioning trials (rats; MK-801 0.05 mg/kg i.p., 30 minutes before conditioning): showed LI in spite of extended conditioning

O=C(CCCN1CCC(O)(c2ccc(Cl)cc2)CC1)c1ccc(F)cc1 [haloperidol, reference compound]
ED50 at 30 min [4]: 0.64 mg/kg | induction of catalepsy compared to vehicle treated animals (Male Sprague-Dawley rats [1]; haloperidol 1 and 3 mg/kg): significantly induces catalepsy | reversal of locomotor hyperactivity (Male Sprague-Dawley rats [2]; haloperidol 0.3 mg/kg ip): highly significant reversal

NCC(=O)O [glycine, Glycine]
MK-801-induced abnormally persistent LI (rats; glycine 0.8 g/kg i.p., 30 minutes prior to conditioning): reversed
